Patent US20220033460A1, “IDENTIFICATION AND USE OF T CELL EPITOPES IN DESIGNING DIAGNOSTIC AND THERAPEUTIC APPROACHES FOR COVID-19” (priority 2020, published 2022)

Test system: TCRs from the BAL of COVID-19 patients
Type: cell-based, human

LLLLDRLNQLESKMSGKGQQQQ (SARS-CoV-2 epitope) [N221-242]
recognition of the peptide, effect of the mutation (NFAT activation): unaffected
